Reference: patent US7118895B2, “Process for producing aglycon by using diglycosidase and flavor-improved food containing the aglycon and converting agent to be used in the process” (Amano Enzyme Inc., priority 2000, dated 2006)

System: Crude diglycosidase
Assay: Examination of pH in the conversion into isoflavone aglycons by diglycosidase using soybean materials
Type: biochemical, Penicillium multicolor IAM7153
Design: Decomposition efficiency of genistin family in soymilk / Decomposition efficiency of genistin family in defatted soybean / Decomposition efficiency of daidzin family in defatted soybean: concentration or dose not given beside the values
Details: for Decomposition efficiency of daidzin family in roasted soy flour: 55° C.
In short: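 HPLC detection of isoflavone glycosides and aglycons after ethanol quench at 0, 1, 3 and 6 h. Reactions ran at 55° C over pH 2–11, with crude diglycosidase (enzyme solution at 1.88 AU/mL) added to suspended roasted soy flour, soymilk, defatted soybean or concentrated soy protein.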

[1] = pH4.8, heat treatment of enzyme: yes, reaction time 6 h
[2] = pH6.6, heat treatment of enzyme: no, reaction time 0 h
[3] = pH6.6, heat treatment of enzyme: no, reaction time 1 h
[4] = pH6.6, heat treatment of enzyme: no, reaction time 3 h
[5] = pH6.6, heat treatment of enzyme: no, reaction time 6 h
[6] = pH6.6, heat treatment of enzyme: yes, reaction time 6 h

With `O=C(O)CC(=O)OC[C@H]1O[C@@H](Oc2ccc3c(=O)c(-c4ccc(O)cc4)coc3c2)[C@H](O)[C@@H](O)[C@@H]1O` [malonyldaidzin, 6″-O-malonyldaidzin] the “Decomposition efficiency of daidzin family in soymilk” value (from here on “Decomposition efficiency … in soymilk”) (pH4.8, heat treatment of enzyme: no, reaction time 6 h) was 20.3%, the “Decomposition efficiency of daidzin family in defatted soybean” value [1] was 38.4% and the “Decomposition efficiency … in soymilk” value [1] was 49.7%. For the same compound, the “Decomposition efficiency of daidzin family in roasted soy flour” value (pH5, heat treatment of enzyme no, reaction time 0 h) was “not detected”, the “Decomposition efficiency of daidzin family in roasted soy flour” value (pH5, heat treatment of enzyme no, reaction time 1 h) was “not detected” and the “Decomposition efficiency of daidzin family in roasted soy flour” value (pH5, heat treatment of enzyme no, reaction time 3 h) was “not detected”. For the same compound, the “Decomposition efficiency of daidzin family in roasted soy flour” value (pH5, heat treatment of enzyme no, reaction time 6 h) was “not detected”, the “Decomposition efficiency of daidzin family in roasted soy flour” value (pH5, heat treatment of enzyme yes, reaction time 6 h) was “not detected” and the “Decomposition efficiency of daidzin family in concentrated soybean protein” value (pH5.1, heat treatment of enzyme: no, reaction time 0 h) was “not detected”. The “Decomposition efficiency of daidzin family in concentrated soybean protein” value (pH5.1, heat treatment of enzyme: no, reaction time 1 h) was “not detected”, the “Decomposition efficiency of daidzin family in concentrated soybean protein” value (pH5.1, heat treatment of enzyme: no, reaction time 3 h) was “not detected” and the “Decomposition efficiency of daidzin family in concentrated soybean protein” value (pH5.1, heat treatment of enzyme: no, reaction time 6 h) was “not detected”. The “Decomposition efficiency of daidzin family in concentrated soybean protein” value (pH5.1, heat treatment of enzyme: yes, reaction time 6 h) was “not detected”, the “Decomposition efficiency of daidzin family in defatted soybean” value (pH5.4, heat treatment of enzyme: no, reaction time 0 h) was 40.7% and the “Decomposition efficiency of daidzin family in defatted soybean” value (pH5.4, heat treatment of enzyme: no, reaction time 1 h) was 44.2%. For the same compound, the “Decomposition efficiency of daidzin family in defatted soybean” value (pH5.4, heat treatment of enzyme: no, reaction time 3 h) was 41.5%, the “Decomposition efficiency of daidzin family in defatted soybean” value (pH5.4, heat treatment of enzyme: no, reaction time 6 h) was 36.9% and the “Decomposition efficiency of daidzin family in defatted soybean” value (pH5.4, heat treatment of enzyme: yes, reaction time 6 h) was 44.9%. For the same compound, the “Decomposition efficiency … in soymilk” value (pH6.2, heat treatment of enzyme: no, reaction time 0 h) was 56.2%, the “Decomposition efficiency … in soymilk” value (pH6.2, heat treatment of enzyme: no, reaction time 1 h) was 54.1% and the “Decomposition efficiency … in soymilk” value (pH6.2, heat treatment of enzyme: no, reaction time 3 h) was 46.4%. For the same compound, the “Decomposition efficiency … in soymilk” value (pH6.2, heat treatment of enzyme: no, reaction time 6 h) was 41.9%, the “Decomposition efficiency … in soymilk” value (pH6.2, heat treatment of enzyme: yes, reaction time 6 h) was 49.7% and the “Decomposition efficiency of daidzin family in roasted soy flour” value (pH6.5, heat treatment of enzyme no, reaction time 0 h) was “not detected”. For the same compound, the “Decomposition efficiency of daidzin family in roasted soy flour” value (pH6.5, heat treatment of enzyme no, reaction time 1 h) was “not detected”, the “Decomposition efficiency of daidzin family in roasted soy flour” value (pH6.5, heat treatment of enzyme no, reaction time 3 h) was “not detected” and the “Decomposition efficiency of daidzin family in roasted soy flour” value (pH6.5, heat treatment of enzyme no, reaction time 6 h) was “not detected”. The “Decomposition efficiency of daidzin family in roasted soy flour” value (pH6.5, heat treatment of enzyme yes, reaction time 6 h) was “not detected”, the “Decomposition efficiency of daidzin family in concentrated soybean protein” value [2] was “not detected” and the “Decomposition efficiency of daidzin family in defatted soybean” value [2] was 43.1%. For the same compound, the “Decomposition efficiency of daidzin family in concentrated soybean protein” value [3] was “not detected”, the “Decomposition efficiency of daidzin family in defatted soybean” value [3] was 45.9% and the “Decomposition efficiency of daidzin family in concentrated soybean protein” value [4] was “not detected”. For the same compound, the “Decomposition efficiency of daidzin family in defatted soybean” value [4] was 44.0%, the “Decomposition efficiency of daidzin family in concentrated soybean protein” value [5] was “not detected” and the “Decomposition efficiency of daidzin family in defatted soybean” value [5] was 41.8%. The “Decomposition efficiency of daidzin family in concentrated soybean protein” value [6] was “not detected”, the “Decomposition efficiency of daidzin family in defatted soybean” value [6] was 41.2% and the “Decomposition efficiency … in soymilk” value (pH7.2, heat treatment of enzyme: no, reaction time 0 h) was 56.1%. The “Decomposition efficiency … in soymilk” value (pH7.2, heat treatment of enzyme: no, reaction time 1 h) was 56.4%, the “Decomposition efficiency … in soymilk” value (pH7.2, heat treatment of enzyme: no, reaction time 3 h) was 52.4% and the “Decomposition efficiency … in soymilk” value (pH7.2, heat treatment of enzyme: no, reaction time 6 h) was 48.2%. For the same compound, the “Decomposition efficiency … in soymilk” value (pH7.2, heat treatment of enzyme: yes, reaction time 6 h) was 48.3%, the “Decomposition efficiency of daidzin family in defatted soybean” value (pH7.8, heat treatment of enzyme: no, reaction time 0 h) was 42.0% and the “Decomposition efficiency of daidzin family in defatted soybean” value (pH7.8, heat treatment of enzyme: no, reaction time 1 h) was 43.6%. The “Decomposition efficiency of daidzin family in defatted soybean” value (pH7.8, heat treatment of enzyme: no, reaction time 3 h) was 41.4%, the “Decomposition efficiency of daidzin family in defatted soybean” value (pH7.8, heat treatment of enzyme: no, reaction time 6 h) was 38.7% and the “Decomposition efficiency of daidzin family in defatted soybean” value (pH7.8, heat treatment of enzyme: yes, reaction time 6 h) was 36.7%. The “Decomposition efficiency of daidzin family in roasted soy flour” value (pH8.5, heat treatment of enzyme no, reaction time 0 h) was “not detected”, the “Decomposition efficiency of daidzin family in roasted soy flour” value (pH8.5, heat treatment of enzyme no, reaction time 1 h) was “not detected” and the “Decomposition efficiency of daidzin family in roasted soy flour” value (pH8.5, heat treatment of enzyme no, reaction time 3 h) was “not detected”. For the same compound, the “Decomposition efficiency of daidzin family in roasted soy flour” value (pH8.5, heat treatment of enzyme no, reaction time 6 h) was “not detected”, the “Decomposition efficiency of daidzin family in roasted soy flour” value (pH8.5, heat treatment of enzyme yes, reaction time 6 h) was “not detected” and the “Decomposition efficiency of daidzin family in concentrated soybean protein” value (pH8.6, heat treatment of enzyme: no, reaction time 0 h) was “not detected”. For the same compound, the “Decomposition efficiency of daidzin family in concentrated soybean protein” value (pH8.6, heat treatment of enzyme: no, reaction time 1 h) was “not detected”, the “Decomposition efficiency of daidzin family in concentrated soybean protein” value (pH8.6, heat treatment of enzyme: no, reaction time 3 h) was “not detected” and the “Decomposition efficiency of daidzin family in concentrated soybean protein” value (pH8.6, heat treatment of enzyme: no, reaction time 6 h) was “not detected”. For the same compound, the “Decomposition efficiency of daidzin family in concentrated soybean protein” value (pH8.6, heat treatment of enzyme: yes, reaction time 6 h) was “not detected”, the “Decomposition efficiency … in soymilk” value (pH11.6, heat treatment of enzyme: no, reaction time 0 h) was 52.5% and the “Decomposition efficiency … in soymilk” value (pH11.6, heat treatment of enzyme: no, reaction time 1 h) was 56.4%. The “Decomposition efficiency … in soymilk” value (pH11.6, heat treatment of enzyme: no, reaction time 3 h) was 50.4%, the “Decomposition efficiency … in soymilk” value (pH11.6, heat treatment of enzyme: no, reaction time 6 h) was 47.7% and the “Decomposition efficiency … in soymilk” value (pH11.6, heat treatment of enzyme: yes, reaction time 6 h) was 46.1%.
